Four compounds from patent publication US20110177014A1, “EXTRACTS FROM PLANTS OF THE TSUGA GENUS AND USES THEREOF IN THE TREATMENT OF INFLAMMATION, IRRITATION AND/OR INFECTION” (BIOPHARMACOPAE DESIGN INTERNATIONAL INC., priority 2008, published 2011) can be followed below.

What all share (format): cell-based
The subject of data set [1] is HUVECs. In words: Cord formation assay on Matrigel (angiogenesis). Conditions: Homo sapiens, HUVEC. As for the experimental part: 60 μl Matrigel® was added to a 96-well plate flat bottom plate (Costar 3096) and incubated for 30 minutes at 37° C. in a 5% CO2 atmosphere. A mixture of HUVECs and Tsuga extract, or a positive control (Fumagillin or GM6001) were added to each well. HUVECs were prepared as suspensions of 2.5×10^5 cells per ml in EGM-2, then 500 μl of HUVECs preparation was mixed with 500 μl of 2× of the desired dilution of Tsuga extract or control drug and 200 μl were added to each well. Four dilutions of each extract were tested in duplicate. After 18-24 hours at 37° C. in 5% CO2, the cells had migrated and organized into cords. The number of cell junctions was counted in 3 randomly selected fields and the inhibition of cord formation is calculated as follows: [(A−B)/A]×100, where A is the average number of cell junctions per field in the control well and B is the average number of cell junctions per field in the treated wells.

For data set [2], the system named is human skin fibroblasts. In words: Inhibition of contractile force of fibroblasts in collagen I gel. The settings on record: Skin fibroblast, read-out: inhibition of tractional force of fibroblasts. The source says: The skin model comprises human skin fibroblasts imbedded in a collagen I matrix and provides an in vitro representation of dermal contraction resulting from tractional forces generated by fibroblasts. Partial or permanent dermal contraction can play a role in the formation of wrinkles. Thus, extracts capable of inhibiting the contractile force of fibroblasts, have the potential to provide a dermo-decontraction anti-ageing effect in the skin.
The ability of the Tsuga extracts to inhibit the contractile force of fibroblasts was evaluated on human skin fibroblasts (Cascade Biologics, Portland, Oreg.). The cells were imbedded in a collagen I matrix to create a derm-like environment. Fibroblasts were grown in complete M106 to 80% confluence. Free-floating fibroblast-populated collagen gels were prepared in 24-well plates. 500 μl of gel contains 2.5 mg/ml of collagen I (rat tail, BD Biosciences, Bedford, Mass.), M106 5X, NaOH 0.7N; 1×10^5 cells and fetal bovine serum (FBS) at 20% (Wisent, St-Bruno, QC, Canada). The mix was kept on ice until distribution. The derm-like gels were allowed to polymerize for 1 hour at 37° C. in a humidified 5% CO2 atmosphere. After incubation, the gels were detached from the wells. […] Contraction was measured beginning at day 5. Contracting gels were digitally photographed and the gel areas were calculated using ImagePro software.

In data set [3] the test system is human skin keratinocytes. In words: IL-8 release from keratinocytes (irritation potential), ELISA. The settings on record: 5 μM; basal level 18 pg/ml. As to the method: This example provides results showing the non-irritating quality of the Tsuga extracts. The amount of interleukin-8 (IL-8) released in the following assay is used to quantify a possible irritating reaction after exposure of keratinocytes to the Tsuga extract.
Release of IL-8 was evaluated on human skin keratinocytes (Cascade Biologics, Portland, Oreg., catalog number C-005) and measured using the Quantikine hIL8 ELISA kit (R&D Systems, Minneapolis, Minn., catalog number D8000C). Keratinocytes were first grown in a 96-well plate using complete medium M154 (M154+HKGS cat S-001 from Cascade Biologics). This medium was used as a negative (non-irritating) control, while 2.5 μM phorbol 12-myristate 13-acetate (PMA) (Sigma-Aldrich Canada, Oakville, Ontario) was used as a positive (irritating) control. All extracts and controls were diluted in complete medium M154. Cells were seeded into 96-well plates at a concentration of 8×10^3 cells/well in complete M154 medium and plates were incubated for 48 hours at 37° C. in a humidified 5% CO2 atmosphere. The medium was removed and 200 μl of Tsuga extract or control were added to the wells (all performed in duplicate) and then the plates were incubated for 48 hours at 37° C. in a humidified 5% CO2 atmosphere. […] The absorbance was read at 450 nm on the Spectrafluor Plus plate reader (Tecan). […]
(In an ELISA, binding on a coated surface is turned into a signal by an enzyme label.)

In data set [4] the test system is human skin keratinocytes. The data set can be described thus: UVA-induced IL-1 release in keratinocytes, ELISA. The settings on record: UVA 20 J/cm^2. As for the experimental part: This example provides results showing the anti-inflammatory effect of Tsuga extracts when inflammation is induced in keratinocytes. The amount of interleukin-1 alpha (IL-1) released is used to quantify the inflammatory reaction after exposure of the keratinocytes to UVA light irradiation. IL-1 release was evaluated in human skin keratinocytes (Cascade Biologics, Portland, Oreg.) and was measured using the Quantikine hIL1 ELISA kit (R&D Systems, Minneapolis, Minn.). Keratinocytes were first grown in a 96-well plate using complete […] medium with different concentrations of extracts for 48 hours at 37° C. in a humidified 5% CO2 atmosphere. All extracts and controls were diluted in complete […] medium. Cells were rinsed with HBSS and irradiated with UVA at 20 J/cm^2. HBSS was removed and complete […] medium containing controls or extracts was added to respective wells. Plates were incubated for another 24 hours. ELISA was performed following the manufacturer's recommendations (R&D Systems). The absorbance was read at 450 nm on the Spectrafluor Plus plate reader (Tecan). […] The inhibition of IL-1 release is proportional to the anti-inflammatory effect.

SMILES strings stand for the structures.

By inhibition is commonly meant the drop in the measured response relative to a control, in per cent. In data set [1] (15 μg/ml), `CO[C@@H]1[C@H](OC(=O)/C=C/C=C/C=C/C=C/C(=O)O)CC[C@]2(CO2)[C@H]1[C@@]1(C)O[C@@H]1CC=C(C)C` [Fumagillin] registered an inhibition at 15 µg/mL of 100%.

`CNC(=O)[C@H](Cc1c[nH]c2ccccc12)NC(=O)[C@@H](CC(=O)NO)CC(C)C` [GM6001] came in with an inhibition at 25 µM in data set [1] (25 μM) of 78%. Also, the inhibition at 50 µM in data set [2] was 85%.

The compound `CCCCCCCCCCCCCC(=O)O[C@@H]1[C@@H](C)[C@@]2(O)[C@@H](C=C(CO)C[C@]3(O)C(=O)C(C)=C[C@@H]23)[C@@H]2C(C)(C)[C@]12OC(C)=O` [PMA, phorbol 12-myristate 13-acetate] returned an IL-8 release in data set [3] of 282 pg/mL.

Consider `O=C(O)c1ccccc1O` [salicylic acid], for which the “inhibition of IL-1 release” value in data set [4] (0.025%) was found to be 11%; in data set [4] (0.05%), 27%.
